Experimental data published in ChEMBL document CHEMBL4507268 (2021).

Tests used:
[1] = target: Mitogen-activated protein kinase 11 (Homo sapiens) (UniProt Q15759); settings: Compound concentration 1000.0 nM
[2] = target: Alpha-2C adrenergic receptor (Homo sapiens) (UniProt P18825); settings: Compound concentration 10.0 uM
[3] = target: Mitogen-activated protein kinase kinase kinase kinase 1 (Homo sapiens) (UniProt Q92918); settings: Compound concentration 1000.0 nM
[4] = tested on: Epidermal growth factor receptor (Homo sapiens), P00533 [UNDEFINED MUTATION]; settings: Compound concentration 1000.0 nM
[5] = tested on: eIF-2-alpha kinase GCN2 (Homo sapiens), Q9P2K8 [S808G]; settings: Compound concentration 1000.0 nM
[6] = target: 5-hydroxytryptamine receptor 1B (Homo sapiens) (UniProt P28222); settings: Compound concentration 10.0 uM
[7] = target: RAC-gamma serine/threonine-protein kinase (Homo sapiens) (UniProt Q9Y243); settings: Compound concentration 1000.0 nM
[8] = target: Mitogen-activated protein kinase kinase kinase 12 (Homo sapiens) (UniProt Q12852); settings: Compound concentration 1000.0 nM
[9] = target: Ephrin type-A receptor 5 (Homo sapiens) (UniProt P54756); settings: Compound concentration 1000.0 nM
[10] = target: T1, Serine/threonine-protein kinase Nek9 (Homo sapiens) (UniProt Q8TD19); settings: Compound concentration 1000.0 nM
T1 sequence (whole entry): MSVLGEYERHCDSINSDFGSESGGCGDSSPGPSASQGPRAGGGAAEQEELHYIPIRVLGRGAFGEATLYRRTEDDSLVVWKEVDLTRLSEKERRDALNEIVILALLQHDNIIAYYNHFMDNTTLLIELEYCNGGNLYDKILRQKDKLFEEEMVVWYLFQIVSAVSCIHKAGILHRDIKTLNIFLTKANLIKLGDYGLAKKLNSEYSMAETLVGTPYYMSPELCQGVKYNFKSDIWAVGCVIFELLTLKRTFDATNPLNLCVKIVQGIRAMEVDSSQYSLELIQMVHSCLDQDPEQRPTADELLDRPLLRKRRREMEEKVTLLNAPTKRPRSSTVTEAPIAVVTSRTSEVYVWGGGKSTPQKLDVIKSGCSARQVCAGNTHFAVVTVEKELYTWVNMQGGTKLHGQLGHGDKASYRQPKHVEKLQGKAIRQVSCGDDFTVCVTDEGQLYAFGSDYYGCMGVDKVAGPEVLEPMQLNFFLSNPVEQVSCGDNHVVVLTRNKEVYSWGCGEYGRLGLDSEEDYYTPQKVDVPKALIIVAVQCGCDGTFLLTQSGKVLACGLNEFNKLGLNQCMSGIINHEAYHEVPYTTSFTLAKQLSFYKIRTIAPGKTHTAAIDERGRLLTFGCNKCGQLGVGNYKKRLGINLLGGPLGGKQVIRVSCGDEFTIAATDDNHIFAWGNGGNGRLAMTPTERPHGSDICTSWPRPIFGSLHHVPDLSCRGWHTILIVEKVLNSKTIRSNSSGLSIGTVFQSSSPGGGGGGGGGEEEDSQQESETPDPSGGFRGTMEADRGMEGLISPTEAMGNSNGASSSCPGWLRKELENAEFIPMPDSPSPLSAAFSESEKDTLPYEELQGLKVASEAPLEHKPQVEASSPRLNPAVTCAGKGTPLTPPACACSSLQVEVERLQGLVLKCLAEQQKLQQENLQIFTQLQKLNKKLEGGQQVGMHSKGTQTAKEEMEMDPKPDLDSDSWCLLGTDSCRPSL

[11] = target: T2, Serine/threonine-protein kinase TAO2 (Homo sapiens) (UniProt Q9UL54); settings: Compound concentration 1000.0 nM
T2 sequence (whole entry): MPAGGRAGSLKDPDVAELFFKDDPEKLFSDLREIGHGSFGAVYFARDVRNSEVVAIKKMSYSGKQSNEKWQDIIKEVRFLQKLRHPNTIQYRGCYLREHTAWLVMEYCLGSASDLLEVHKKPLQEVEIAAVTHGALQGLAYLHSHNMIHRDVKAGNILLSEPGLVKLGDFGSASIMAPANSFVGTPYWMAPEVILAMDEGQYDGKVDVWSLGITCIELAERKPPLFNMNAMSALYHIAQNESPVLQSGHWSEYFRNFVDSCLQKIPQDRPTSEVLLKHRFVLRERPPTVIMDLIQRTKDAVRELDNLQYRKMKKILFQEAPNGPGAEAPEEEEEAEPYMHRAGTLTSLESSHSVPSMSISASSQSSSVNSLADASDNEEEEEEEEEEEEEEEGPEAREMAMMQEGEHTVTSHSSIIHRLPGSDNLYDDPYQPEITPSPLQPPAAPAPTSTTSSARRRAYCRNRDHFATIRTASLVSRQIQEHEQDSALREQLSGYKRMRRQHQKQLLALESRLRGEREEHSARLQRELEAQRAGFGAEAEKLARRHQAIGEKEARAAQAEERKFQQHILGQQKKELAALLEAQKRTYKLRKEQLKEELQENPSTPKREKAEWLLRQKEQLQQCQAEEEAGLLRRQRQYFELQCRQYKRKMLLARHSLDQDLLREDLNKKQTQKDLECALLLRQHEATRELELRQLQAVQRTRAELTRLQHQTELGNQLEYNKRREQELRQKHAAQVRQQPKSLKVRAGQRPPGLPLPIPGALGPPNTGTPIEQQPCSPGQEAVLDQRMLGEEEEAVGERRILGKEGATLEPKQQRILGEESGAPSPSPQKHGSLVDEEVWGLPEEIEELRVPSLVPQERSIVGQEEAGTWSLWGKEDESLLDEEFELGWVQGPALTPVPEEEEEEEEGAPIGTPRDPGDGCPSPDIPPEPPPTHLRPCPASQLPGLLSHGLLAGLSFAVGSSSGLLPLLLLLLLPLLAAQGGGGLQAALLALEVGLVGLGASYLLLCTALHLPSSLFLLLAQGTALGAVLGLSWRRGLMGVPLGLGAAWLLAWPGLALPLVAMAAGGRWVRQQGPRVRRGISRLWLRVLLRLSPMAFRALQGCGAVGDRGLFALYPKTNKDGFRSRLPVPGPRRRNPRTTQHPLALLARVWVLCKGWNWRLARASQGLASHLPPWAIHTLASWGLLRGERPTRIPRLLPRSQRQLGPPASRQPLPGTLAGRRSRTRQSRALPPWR

[12] = target: Cyclin-dependent kinase 18 (Homo sapiens) (UniProt Q07002); settings: Compound concentration 1000.0 nM
[13] = target: Cyclin-dependent kinase 11A (Homo sapiens) (UniProt Q9UQ88); settings: Compound concentration 1000.0 nM
[14] = target: Cyclin-dependent kinase 16 (Homo sapiens) (UniProt Q00536); settings: Compound concentration 1000.0 nM
[15] = target: Rho-associated protein kinase 2 (Homo sapiens) (UniProt O75116); settings: Compound concentration 1000.0 nM
Rho-associated protein kinase 2 (Homo sapiens), sequence (O75116 whole entry, looked up): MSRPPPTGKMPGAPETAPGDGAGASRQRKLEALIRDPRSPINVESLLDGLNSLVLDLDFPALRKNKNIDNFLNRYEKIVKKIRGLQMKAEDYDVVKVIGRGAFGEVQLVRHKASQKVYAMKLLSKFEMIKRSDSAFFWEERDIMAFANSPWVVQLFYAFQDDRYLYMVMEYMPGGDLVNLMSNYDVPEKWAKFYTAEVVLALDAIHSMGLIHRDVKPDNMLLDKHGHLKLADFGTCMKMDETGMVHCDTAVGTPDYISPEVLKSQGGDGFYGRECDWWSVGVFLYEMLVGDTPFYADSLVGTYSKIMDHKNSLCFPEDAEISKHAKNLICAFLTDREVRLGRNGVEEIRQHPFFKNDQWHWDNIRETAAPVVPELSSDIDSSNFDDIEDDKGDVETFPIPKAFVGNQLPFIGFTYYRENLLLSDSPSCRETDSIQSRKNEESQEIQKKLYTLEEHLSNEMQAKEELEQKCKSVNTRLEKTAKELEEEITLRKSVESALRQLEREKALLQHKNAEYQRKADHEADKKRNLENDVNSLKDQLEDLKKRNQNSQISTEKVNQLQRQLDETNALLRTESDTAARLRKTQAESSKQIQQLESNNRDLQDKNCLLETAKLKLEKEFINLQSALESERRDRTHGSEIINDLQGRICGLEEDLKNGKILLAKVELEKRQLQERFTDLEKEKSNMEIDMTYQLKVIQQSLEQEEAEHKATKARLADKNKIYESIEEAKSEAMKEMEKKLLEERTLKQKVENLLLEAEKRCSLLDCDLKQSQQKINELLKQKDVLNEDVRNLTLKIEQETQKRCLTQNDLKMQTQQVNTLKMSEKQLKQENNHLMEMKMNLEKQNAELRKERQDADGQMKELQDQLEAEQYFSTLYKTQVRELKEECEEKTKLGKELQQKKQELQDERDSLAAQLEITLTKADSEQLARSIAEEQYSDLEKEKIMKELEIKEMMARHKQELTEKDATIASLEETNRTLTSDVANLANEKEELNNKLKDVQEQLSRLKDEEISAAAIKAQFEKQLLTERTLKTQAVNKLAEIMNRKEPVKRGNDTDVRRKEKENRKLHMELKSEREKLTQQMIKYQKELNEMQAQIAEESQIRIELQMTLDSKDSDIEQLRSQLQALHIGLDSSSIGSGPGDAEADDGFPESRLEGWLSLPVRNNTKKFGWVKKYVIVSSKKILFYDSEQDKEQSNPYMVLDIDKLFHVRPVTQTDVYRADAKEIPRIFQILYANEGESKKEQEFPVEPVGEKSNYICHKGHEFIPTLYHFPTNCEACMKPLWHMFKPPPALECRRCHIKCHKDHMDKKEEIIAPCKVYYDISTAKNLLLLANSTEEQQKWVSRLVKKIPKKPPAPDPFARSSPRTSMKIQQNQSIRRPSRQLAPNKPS

Mitogen-activated protein kinase kinase kinase kinase 1 (Homo sapiens), sequence (Q92918 whole entry, looked up): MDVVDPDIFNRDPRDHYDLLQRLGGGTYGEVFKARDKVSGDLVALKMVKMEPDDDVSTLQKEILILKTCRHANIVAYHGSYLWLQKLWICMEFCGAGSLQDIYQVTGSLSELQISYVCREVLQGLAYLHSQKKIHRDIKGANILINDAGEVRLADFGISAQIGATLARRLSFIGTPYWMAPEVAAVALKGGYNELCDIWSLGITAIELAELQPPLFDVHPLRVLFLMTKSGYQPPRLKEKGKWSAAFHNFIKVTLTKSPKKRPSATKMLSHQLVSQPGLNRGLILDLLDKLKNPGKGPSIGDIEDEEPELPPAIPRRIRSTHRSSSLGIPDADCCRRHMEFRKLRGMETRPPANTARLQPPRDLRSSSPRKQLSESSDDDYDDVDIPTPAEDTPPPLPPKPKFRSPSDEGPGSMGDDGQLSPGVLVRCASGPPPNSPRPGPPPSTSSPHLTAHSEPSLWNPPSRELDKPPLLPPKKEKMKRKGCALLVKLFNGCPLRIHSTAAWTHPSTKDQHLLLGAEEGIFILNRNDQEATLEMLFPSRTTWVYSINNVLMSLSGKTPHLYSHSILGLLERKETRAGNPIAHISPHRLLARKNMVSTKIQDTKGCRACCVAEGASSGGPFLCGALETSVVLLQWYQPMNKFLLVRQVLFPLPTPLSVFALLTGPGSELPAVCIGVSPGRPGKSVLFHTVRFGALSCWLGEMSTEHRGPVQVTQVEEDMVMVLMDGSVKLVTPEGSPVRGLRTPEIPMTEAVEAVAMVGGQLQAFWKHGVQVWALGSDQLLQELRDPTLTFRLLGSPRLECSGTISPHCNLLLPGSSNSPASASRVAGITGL
Mitogen-activated protein kinase 11 (Homo sapiens), sequence (Q15759 whole entry): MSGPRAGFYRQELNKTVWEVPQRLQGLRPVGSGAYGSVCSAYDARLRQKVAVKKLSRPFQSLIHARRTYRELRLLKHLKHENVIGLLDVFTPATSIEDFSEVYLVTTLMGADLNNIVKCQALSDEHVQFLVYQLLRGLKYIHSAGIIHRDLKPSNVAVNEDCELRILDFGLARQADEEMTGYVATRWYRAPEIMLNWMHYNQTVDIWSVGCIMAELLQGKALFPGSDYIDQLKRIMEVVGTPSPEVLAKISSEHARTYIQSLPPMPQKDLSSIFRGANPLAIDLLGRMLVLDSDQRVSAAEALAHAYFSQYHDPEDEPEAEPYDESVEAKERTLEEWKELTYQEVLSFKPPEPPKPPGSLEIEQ
Mitogen-activated protein kinase kinase kinase 12 (Homo sapiens), sequence (Q12852 whole entry): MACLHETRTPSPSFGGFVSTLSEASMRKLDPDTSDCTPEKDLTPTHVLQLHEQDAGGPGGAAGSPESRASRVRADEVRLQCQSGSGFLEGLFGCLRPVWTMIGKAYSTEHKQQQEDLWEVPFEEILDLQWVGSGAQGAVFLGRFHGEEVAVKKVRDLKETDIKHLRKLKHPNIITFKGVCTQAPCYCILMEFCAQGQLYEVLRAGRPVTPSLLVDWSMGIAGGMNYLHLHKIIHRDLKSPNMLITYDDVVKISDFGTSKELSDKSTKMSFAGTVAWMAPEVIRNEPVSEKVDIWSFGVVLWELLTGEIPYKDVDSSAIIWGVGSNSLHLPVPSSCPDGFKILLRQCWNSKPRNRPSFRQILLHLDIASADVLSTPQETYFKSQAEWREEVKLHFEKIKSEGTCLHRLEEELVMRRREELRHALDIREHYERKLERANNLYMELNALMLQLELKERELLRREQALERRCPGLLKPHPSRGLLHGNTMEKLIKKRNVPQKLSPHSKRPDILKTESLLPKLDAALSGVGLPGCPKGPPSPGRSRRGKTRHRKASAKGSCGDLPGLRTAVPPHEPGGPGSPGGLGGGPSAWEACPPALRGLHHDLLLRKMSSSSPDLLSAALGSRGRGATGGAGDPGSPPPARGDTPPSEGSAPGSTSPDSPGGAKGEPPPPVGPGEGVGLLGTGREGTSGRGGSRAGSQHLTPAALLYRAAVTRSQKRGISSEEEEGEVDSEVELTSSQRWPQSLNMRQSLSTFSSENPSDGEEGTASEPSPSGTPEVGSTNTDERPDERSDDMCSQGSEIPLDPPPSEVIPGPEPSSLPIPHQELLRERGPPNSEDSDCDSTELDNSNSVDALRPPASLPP
Cyclin-dependent kinase 16 (Homo sapiens), sequence (Q00536 whole entry): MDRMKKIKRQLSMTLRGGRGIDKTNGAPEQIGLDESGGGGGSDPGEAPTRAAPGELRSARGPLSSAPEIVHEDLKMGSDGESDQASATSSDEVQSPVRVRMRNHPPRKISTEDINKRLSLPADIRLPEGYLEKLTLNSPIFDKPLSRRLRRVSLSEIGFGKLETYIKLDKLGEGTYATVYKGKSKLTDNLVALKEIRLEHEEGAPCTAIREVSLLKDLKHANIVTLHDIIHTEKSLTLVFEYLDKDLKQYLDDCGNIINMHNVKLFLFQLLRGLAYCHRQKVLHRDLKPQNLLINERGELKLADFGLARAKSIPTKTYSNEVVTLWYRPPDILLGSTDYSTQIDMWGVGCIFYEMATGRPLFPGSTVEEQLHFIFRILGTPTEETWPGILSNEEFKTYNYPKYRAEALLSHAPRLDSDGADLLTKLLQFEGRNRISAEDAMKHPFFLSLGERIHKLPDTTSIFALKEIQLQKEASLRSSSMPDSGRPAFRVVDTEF
Ephrin type-A receptor 5 (Homo sapiens), sequence (P54756 whole entry): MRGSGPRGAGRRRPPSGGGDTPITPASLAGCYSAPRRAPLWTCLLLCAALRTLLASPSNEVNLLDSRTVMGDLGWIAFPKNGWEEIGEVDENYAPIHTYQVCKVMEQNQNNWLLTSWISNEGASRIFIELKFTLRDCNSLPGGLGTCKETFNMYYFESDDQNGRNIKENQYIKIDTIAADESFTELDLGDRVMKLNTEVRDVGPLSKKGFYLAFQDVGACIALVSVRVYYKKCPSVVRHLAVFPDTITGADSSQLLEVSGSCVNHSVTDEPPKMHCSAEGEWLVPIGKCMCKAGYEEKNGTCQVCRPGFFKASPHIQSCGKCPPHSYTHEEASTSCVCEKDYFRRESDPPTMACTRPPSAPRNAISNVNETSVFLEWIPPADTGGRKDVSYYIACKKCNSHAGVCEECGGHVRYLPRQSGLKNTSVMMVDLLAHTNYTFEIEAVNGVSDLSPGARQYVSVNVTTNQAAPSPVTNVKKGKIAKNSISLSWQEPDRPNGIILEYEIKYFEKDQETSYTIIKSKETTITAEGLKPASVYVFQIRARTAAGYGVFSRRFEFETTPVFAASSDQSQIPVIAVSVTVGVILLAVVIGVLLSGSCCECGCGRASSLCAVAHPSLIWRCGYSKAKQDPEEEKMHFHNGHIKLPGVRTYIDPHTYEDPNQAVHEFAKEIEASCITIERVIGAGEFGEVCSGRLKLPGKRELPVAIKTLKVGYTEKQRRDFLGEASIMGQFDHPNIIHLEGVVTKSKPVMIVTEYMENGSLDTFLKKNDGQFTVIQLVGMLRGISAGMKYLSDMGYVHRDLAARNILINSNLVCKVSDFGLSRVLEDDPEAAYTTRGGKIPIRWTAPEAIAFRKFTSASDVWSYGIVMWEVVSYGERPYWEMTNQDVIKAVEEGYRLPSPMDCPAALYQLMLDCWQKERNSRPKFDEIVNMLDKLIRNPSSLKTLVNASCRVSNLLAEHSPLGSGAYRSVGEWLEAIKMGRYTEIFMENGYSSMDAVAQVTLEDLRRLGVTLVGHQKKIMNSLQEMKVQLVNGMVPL

Cc1nc(C2CCN(C(=O)c3ccc(OC(F)(F)F)cc3N)CC2)c2ncc(N3CCN(C)CC3)cc2n1 [BAY-693]
inactive: residual activity [1] 100% | inhibition [2] -6.01% | residual activity [3] 96% | residual activity [4] 70% | residual activity [5] 90% | inhibition [6] 14.6% | residual activity [7] 95% | residual activity [8] 100% | residual activity [9] 99% | residual activity [10] 94% | residual activity [11] 100% | residual activity [12] 100% | residual activity [13] 100% | residual activity [14] 100% | residual activity [15] 91%

CN1CCN(c2cnc3c(C4CCN(C(=O)c5ccc(OC(F)(F)F)cc5N)CC4)ncnc3c2)CC1 [BAY-885]
inactive: residual activity [1] 98% | inhibition [2] -2.34% | residual activity [3] 88% | residual activity [4] 83% | residual activity [5] 99% | inhibition [6] 14.9% | residual activity [7] 93% | residual activity [8] 100% | residual activity [9] 91% | residual activity [10] 100% | residual activity [11] 100% | residual activity [12] 100% | residual activity [13] 61% | residual activity [14] 100% | residual activity [15] 100%
